Values quoted from earlier work as cited in patent publication US12637441B2, “Prodrugs of the tyrosine kinase inhibitor for treating cancer” (RISEN (SUZHOU) PHARMA TECH CO., LTD., priority 2019, dated 2026).

CNC(=O)c1ccccc1Sc1ccc2c(/C=C/c3ccccn3)n[nH]c2c1 [axitinib, N-methyl-2-((3-((1E)-2-(2-pyridinyl)ethenyl)-1H-indazol-6-yl)thio)benzamide]
patients in whom the most common side effects occur: more than 20%
